Reference: patent publication US8282938B2 (priority 2008, dated 2012)

What follows are sequences tested on HLA-A*0201-restricted cytotoxic T lymphocytes. Details: mouse, in vivo.
Design: species or system mice expressing the HLA-A*0201 molecule (HHD mice)
With GMFNMLSTV [PB1_410] the CTL activity was “high CTL activity” and the Specific killing was 87%.

These sequences were tested on HLA-A*2402-restricted cytotoxic T lymphocytes. Details: mouse, in vivo.
Design: species or system transgenic mice expressing the HLA-A*2402 molecule (A24Tg)
In the case of CFNPMIVEL [PA_8], the CTL activity is reported as “low activity” and the Specific killing is reported as 10%.
With EWFRNVLSI [PB1_331] the CTL activity was “low activity” and the Specific killing was 7%.
For IFLARSALI [NP_257], the CTL activity was “low activity” and the Specific killing was 16%.
With KTTPRPLRL [PA_262] the CTL activity was “high CTL activity” and the Specific killing was 58%.
In the case of LWILDRLFF [M2_40], the CTL activity is reported as “low activity” and the Specific killing is reported as 10%.
In the case of MYQKCCTLF [PB1_688], the CTL activity is reported as “high CTL activity” and the Specific killing is reported as 89%.
In the case of RYTKTTYWW [PB1_430], the CTL activity is reported as “high CTL activity” and the Specific killing is reported as 96%.
For SFSFGGFTF [PB2_322], the CTL activity was “high CTL activity” and the Specific killing was 38%.
SLLTEVETL [M2_2] was tested, and the CTL activity was “low activity”.
SYINRTGTF [PB1_482] was tested, and the CTL activity was “high CTL activity” and the Specific killing was 56%.
For SYLIRALTL [PB1_216], the CTL activity was “high CTL activity” and the Specific killing was 22%.
For TYFEKVERL [PB2_117], the CTL activity was “low activity” and the Specific killing was 13%.
For TYQWIIRNW [PB2_549], the CTL activity was “high CTL activity” and the Specific killing was 96%.
In the case of YYLEKANKI [PA_130], the CTL activity is reported as “high CTL activity” and the Specific killing is reported as 95%.
